# From patent US10933141B2, “Formulations with reduced degradation of polysorbate” (Genentech, Inc., priority 2015, dated 2021)
# What was measured:
# [1] = target: T1, porcine pancreatic lipase (PPL) (Sus scrofa, UniProt P00591); experiment: Subvisible particle formation after PPL digestion of PS20 (HIAC); assay type: physicochemical; settings: 0.02% PS20; for effect on SVP formation (in words): 15 μg/mL PPL 4.5 hours, then 5° C. overnight, excipient 15% w/v (methionine 10 mg/mL)
# T1 construct: purchased Sigma Aldrich Inc. (St. Louis, Mo.)
# T1 sequence (P00591 1-450): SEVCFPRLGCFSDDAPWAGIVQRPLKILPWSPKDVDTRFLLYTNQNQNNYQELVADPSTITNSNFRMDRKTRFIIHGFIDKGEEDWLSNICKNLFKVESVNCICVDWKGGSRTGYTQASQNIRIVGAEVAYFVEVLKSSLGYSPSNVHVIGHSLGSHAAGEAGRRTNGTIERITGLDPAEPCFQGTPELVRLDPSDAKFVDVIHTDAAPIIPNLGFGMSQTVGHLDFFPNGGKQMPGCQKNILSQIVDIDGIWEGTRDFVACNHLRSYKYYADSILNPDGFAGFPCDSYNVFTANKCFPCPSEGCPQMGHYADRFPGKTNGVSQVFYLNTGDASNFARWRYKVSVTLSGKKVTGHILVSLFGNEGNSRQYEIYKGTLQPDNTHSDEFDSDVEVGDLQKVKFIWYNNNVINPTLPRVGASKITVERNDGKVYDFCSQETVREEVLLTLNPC
# Procedure: Subvisible particles were measured using a HIAC 9703 particle counter equipped with an HRDL-150 detector and a 1 mL syringe. Performance of the instrument was verified with NIST-traceable 2 μm Polystyrene bead standards at 3000 counts/mL before each measurement session. The HIAC instrument was configured to a 10 mL/min flow rate, 0.1 mL tare volume, and 0.4 mL sample volume. The samples were analyzed using 4 runs of 0.4 mL sips, with the first run of each sample was discarded to prevent measurement error due to sample carryover. Results were reported as the average values for 1.4, 2, 5, 10, 15, and 25, 50 μm analysis filter sizes.
# Several excipients were tested for their ability to protect PS20 against enzymatic hydrolysis including HP-α-CD, HP-β-CD, HP-γ-CD, SBE-β-CD, PVP, PEG 1500, sucrose, and methionine. Solutions of each excipient in pH 5.5 buffer were prepared containing a final concentration of 0.02% PS20 after enzyme addition. The concentration of HP-α-CD, HP-β-CD, HP-γ-CD, and SBE-β-CD in the excipient solutions was 106 mM. […] The remaining excipients (PVP, PEG 1500, sucrose) were added to 15% w/v to match the % w/v of HP-β-CD. Samples were digested with 15 μg/mL PPL enzyme for 4.5 hours at room temperature, followed by 30 minutes of heat inactivation at 85° C. Each sample was analyzed for PS20 concentration using high performance liquid chromatography with an inline evaporative light scattering detector. Samples were then placed at 5° C. overnight to allow for the formation of particles and were analyzed for visible and subvisible particles as described previously.
# The effect of the HP-β-CD concentration at different PS20 concentrations on the enzymatic degradation of PS20 was assessed to identify optimal concentrations for inhibition of enzymatic PS20 degradation. To evaluate the dependence of PS20 degradation on HP-β-CD concentration, the PS20 content was determined using RP-ELSD for triplicate samples containing different HP-β-CD concentrations at various PS20 concentrations. Samples containing 0.005% (FIG. 14A), 0.02% (FIG. 14B), 0.1% (FIG. 14C), and 0.4% PS20 (FIG. 14D) were digested using 15 μg/mL of PPL enzyme for 4.5 hours at room temperature in protein-free samples containing no excipient (control), 0, 0.5, 5, and 15% (w/v) HP-β-CD. PPL was added to each of the treatment solutions at a ratio of 75 […], with an equivalent volume of buffer added to the control solutions to determine the effect of HP-β-CD to polysorbate ratio on enzymatic degradation. Digestion was stopped by heat inactivation in an 85° C. water bath for 30 minutes. Each sample was analyzed for PS20 concentration using high performance liquid chromatography with an inline evaporative light scattering detector as described above. Samples were then placed at 5° C. overnight to allow for the formation of particles and placed on ice during analysis for visible and subvisible particles as described above.
# PPL enzyme = target: T2, PPL enzyme (Sus scrofa, UniProt P00591); experiment: PPL degradation of PS20 in mAb, BsAb and sFAb samples, PS20 by RP-ELSD; assay type: biochemical, porcine; settings: 5% and 15% HPβCD, BsAb, sFAb 20 mg/mL and control, 0.02% PS20, 20 mM histidine acetate pH 5.5, 15 μg/mL PPL 4.5 hours
# T2 construct: purchased Sigma Aldrich Inc. (St. Louis, Mo.)
# T2 sequence (P00591 1-450): T1 sequence (P00591 1-450)
# Procedure: Polysorbate concentration was determined using reverse phase ultra-performance liquid chromatography using evaporative light scattering detection (RP-ELSD). Samples were analyzed using an Agilent 1100 series high performance liquid chromatography system (HPLC) fitted with a Waters Oasis MAX cartridge column (20×2.1 mm, 30 μm particle size). The HPLC system was set up with a switching valve directing column flow-through to either waste or a Varian 380-LC evaporative light scattering detector set to 100° C. The mobile phases consisted of 2% formic acid in water (Pump A) and 2% formic acid in isopropanol (Pump B). […] In order to quantitate the PS20 concentration, a standard curve was generated by injecting 20 μL of solutions containing between 0% w/v and 0.4% w/v PS20. For excipients which affected the migration time of PS20 through the column, PS20 standard curve solutions containing the relevant excipient were included in the analysis to facilitate accurate quantitation.
# The impact of various protein molecule classes (e.g., monoclonal antibody (mAb), single-Fab antibody (sFAb), and bispecific antibody(BsAb)) was assessed on the ability of cyclodextrins to decrease enzymatic PS20 degradation. […] Each sample was analyzed for PS20 concentration using high performance liquid chromatography with an inline evaporative light scattering detector. […]
# [2] = PPL 4.5 hours, particles greater than 2, 5, or 10μ
Substance,effect on SVP formation (in words) [1],mitigation of catalytic PS20 degradation across molecular formats (in words) (PPL enzyme),"HP-β-CD concentration required to completely inhibit sub-visible particle formation [1, 2] [%]","HP-β-CD concentration required to partially inhibit sub-visible particle formation [1, 2] [%]"
2-hydroxypropyl-α-cyclodextrin [HP-α-CD],significant inhibitory effects,–,–,–
2-hydroxypropyl-β-cyclodextrin [HP-β-CD],significant inhibitory effects,equally effective at mitigating catalytic PS20 degradation,15,0.5
